Format in all cases: in vivo
In assay [1] the test system is Echinochloa crus-galli (ECHCG). The experiment in a line: Pre-emergence biological efficacy (Example 13). The conditions noted are these: Echinochloa crus-galli, 312 h; pre-emergence, 1,000 g/ha, after 13 days; read-out: Percentage damage ECHCG. Summed up:
(§1)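 Compound formulated in acetone/water (50:50) containing 0.5% Tween 20, diluted into an aqueous spray and applied at 250 or 1000 g/ha a day after sowing. Evaluation at 13 days: 100 = total damage, 0 = no damage.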

Assay [2] deals with Setaria faberi (SETFA). As to the kind of experiment: Pre-emergence biological efficacy (Example 13). The note with it: Setaria faberi, 312 h; pre-emergence, 1,000 g/ha, after 13 days; read-out: Percentage damage SETFA. The method in brief: as §1
Assay [3] concerns Ipomea hederaceae (IPOHE). The experiment in a line: Pre-emergence biological efficacy (Example 13). The note with it: Ipomoea hederacea, 312 h; pre-emergence, 1,000 g/ha, after 13 days; read-out: Percentage damage IPOHE. Summed up:
as §1

The subject of assay [4] is Solanum nigrum (SOLNI). As to the kind of experiment: Pre-emergence biological efficacy (Example 13). The note with it: Solanum nigrum, 312 h; pre-emergence, 1,000 g/ha, after 13 days; read-out: Percentage damage SOLNI. Summed up:
as §1

Assay [5] relates to Amaranthus retroflexus (AMARE). The experiment in a line: Pre-emergence biological efficacy (Example 13). The conditions noted are these: Amaranthus retroflexus, 312 h; pre-emergence, 1,000 g/ha, after 13 days; read-out: Percentage damage AMARE. Summed up:
as §1

Assay [6] has as its system Alopecurus myosuroides (ALOMY). The experiment in a line: Pre-emergence biological efficacy (Example 13). The note with it: Alopecurus myosuroides, 312 h; pre-emergence, 1,000 g/ha, after 13 days; read-out: Percentage damage ALOMY. The method in brief:
as §1

Another assay deals with GALAP Galium aparine. The experiment in a line: Post-emergence crop and weed test (Example 15). The note with it: 360 h, 30 g/ha, after 15 days, read-out: Percentage damage GALAP. The method in brief: (§2)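 Post-emergence spray on 14-day glasshouse plants; 5% formulated stock diluted with water + 0.2% (v/v) X-77. Grown on at 22/16 °C, 16 h light, 65% RH, watered twice daily. Visual damage rated day 15, 0–100 scale.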

The subject of assay [7] is EPHHL Euphorbia heterophylla. As to the kind of experiment: Post-emergence crop and weed test (Example 15). The note with it: 360 h, after 15 days, read-out: Percentage damage EPHHL. Summed up:
as §2

In assay [8] the test system is GLXMA Soybean. As to the kind of experiment: Post-emergence crop and weed test (Example 15). The conditions noted are these: Glycine max, 360 h, after 15 days, read-out: Percentage damage GLXMA. Summed up:
as §2

Assay [9] concerns ABUTH Abutilon theophrasti. As to the kind of experiment: Post-emergence crop and weed test (Example 15). The conditions noted are these: 360 h, after 15 days, read-out: Percentage damage ABUTH. The method in brief: as §2
Another assay deals with VERPE Veronica persica. As to the kind of experiment: Post-emergence crop and weed test (Example 15). The note with it: 360 h, after 15 days, read-out: Percentage damage VERPE. Summed up: as §2
For assay [10], the system named is KCHSC Kochia scoparia. As to the kind of experiment: Post-emergence crop and weed test (Example 15). The conditions noted are these: Bassia scoparia, 360 h, after 15 days, read-out: Percentage damage KCHSC. The method in brief:
as §2

The subject of assay [11] is POLCO Polygonum convolvulus. As to the kind of experiment: Post-emergence crop and weed test (Example 15). The note with it: Fallopia convolvulus, 360 h, after 15 days, read-out: Percentage damage POLCO. The method in brief: as §2
The test system of assay [12] is IPOHE Ipomoea hederacea. The experiment in a line: Post-emergence crop and weed test (Example 15). The conditions noted are these: 360 h, 30 g/ha, after 15 days, read-out: Percentage damage IPOHE. Summed up: as §2
Assay [13] relates to CHEAL Chenopodium album. The experiment in a line: Post-emergence crop and weed test (Example 15). The note with it: 360 h, after 15 days, read-out: Percentage damage CHEAL. The method in brief: as §2
Assay [14] relates to AMARE Amaranthus retroflexus. As to the kind of experiment: Post-emergence crop and weed test (Example 15). The conditions noted are these: 360 h, after 15 days, read-out: Percentage damage AMARE. The method in brief:
as §2

Assay [15] concerns SIDSP Sida spinosa. As to the kind of experiment: Post-emergence crop and weed test (Example 15). The note with it: 360 h, after 15 days, read-out: Percentage damage SIDSP. The method in brief: as §2
Assay [16] deals with XANST Xanthium strumarium. As to the kind of experiment: Post-emergence crop and weed test (Example 15). The conditions noted are these: 360 h, after 15 days, read-out: Percentage damage XANST. The method in brief:
as §2

Assay [17] concerns SINAR Sinapis arvensis. As to the kind of experiment: Post-emergence crop and weed test (Example 15). The conditions noted are these: Mutarda arvensis, 360 h, after 15 days, read-out: Percentage damage SINAR. Summed up: as §2
The test system of assay [18] is Echinochloa crus-galli (ECHCG). The experiment in a line: Post-emergence biological efficacy (Example 14). The note with it: Echinochloa crus-galli, 312 h; post-emergence, 1,000 g/ha, after 13 days; read-out: Percentage damage ECHCG. The method in brief: (§3)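 Herbicidal effect was assessed as percent plant damage 13 days after a foliar application of 250 or 1000 g/ha to 8-day-old glasshouse-grown plants, with the compound formulated in 50:50 acetone/water containing 0.5% Tween 20.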

Assay [19] relates to Setaria faberi (SETFA). The experiment in a line: Post-emergence biological efficacy (Example 14). The conditions noted are these: Setaria faberi, 312 h; post-emergence, 1,000 g/ha, after 13 days; read-out: Percentage damage SETFA. The method in brief: as §3
The test system of assay [20] is Ipomea hederaceae (IPOHE). As to the kind of experiment: Post-emergence biological efficacy (Example 14). The note with it: Ipomoea hederacea, 312 h; post-emergence, 1,000 g/ha, after 13 days; read-out: Percentage damage IPOHE. The method in brief: as §3
Assay [21] deals with Solanum nigrum (SOLNI). As to the kind of experiment: Post-emergence biological efficacy (Example 14). The note with it: Solanum nigrum, 312 h; post-emergence, 1,000 g/ha, after 13 days; read-out: Percentage damage SOLNI. The method in brief: as §3
For assay [22], the system named is Amaranthus retroflexus (AMARE). As to the kind of experiment: Post-emergence biological efficacy (Example 14). The note with it: Amaranthus retroflexus, 312 h; post-emergence, 1,000 g/ha, after 13 days; read-out: Percentage damage AMARE. The method in brief: as §3
The test system of assay [23] is Alopecurus myosuroides (ALOMY). The experiment in a line: Post-emergence biological efficacy (Example 14). The conditions noted are these: Alopecurus myosuroides, 312 h; post-emergence, 1,000 g/ha, after 13 days; read-out: Percentage damage ALOMY. The method in brief:
as §3

In assay [24] the test system is EPHHL Euphorbia heterophylla. As to the kind of experiment: Pre-emergence crop and weed test (Example 16). The note with it: 250 g/ha, after 20 days. On the procedure:
(§4) Seeds of crop and representative weed species were sown in standard soil in pots. After cultivation for 1 day under controlled conditions in a glasshouse (at 22/16° C., day/night; 16 hours light; 65% humidity), the plants were sprayed. The spray solution was prepared by dissolving the technical active ingredient in acetone containing 10.56 wt % Emulsogen EL, 42.22 wt % N-methylpyrrolidone and 2.22 wt % DPG-monoethyl ether to give a 5% stock solution. This was then diluted with water containing 0.2% (v/v) of the adjuvant X-77 to give the desired treatment concentration.
(§5) The test plants were then grown on under controlled conditions in a glasshouse (at 22/16° C., day/night; 16 hours light; 65% humidity) and watered twice daily. After 20 days the test was evaluated (100=total damage to plant; 0=no damage to plant).
(§6) Species as for Post-Emergence Test.

For assay [25], the system named is GLXMA Soybean. The experiment in a line: Pre-emergence crop and weed test (Example 16). The note with it: 250 g/ha, after 20 days. On the procedure: as §4, §5, §6
Assay [26] deals with ABUTH Abutilon theophrasti. The experiment in a line: Pre-emergence crop and weed test (Example 16). The note with it: 250 g/ha, after 20 days. How it is done:
as §4, §5, §6

For assay [27], the system named is KCHSC Kochia scoparia. As to the kind of experiment: Pre-emergence crop and weed test (Example 16). The conditions noted are these: 250 g/ha, after 20 days. On the procedure: as §4, §5, §6
The subject of assay [28] is POLCO Polygonum convolvulus. As to the kind of experiment: Pre-emergence crop and weed test (Example 16). The note with it: 250 g/ha, after 20 days. How it is done: as §4, §5, §6
Assay [29] concerns IPOHE Ipomoea hederacea. As to the kind of experiment: Pre-emergence crop and weed test (Example 16). The conditions noted are these: 250 g/ha, after 20 days. On the procedure:
as §4, §5, §6

In assay [30] the test system is CHEAL Chenopodium album. As to the kind of experiment: Pre-emergence crop and weed test (Example 16). The conditions noted are these: 250 g/ha, after 20 days. On the procedure: as §4, §5, §6
The test system of assay [31] is AMARE Amaranthus retroflexus. As to the kind of experiment: Pre-emergence crop and weed test (Example 16). The conditions noted are these: 250 g/ha, after 20 days. How it is done:
as §4, §5, §6

The test system of assay [32] is SIDSP Sida spinosa. As to the kind of experiment: Pre-emergence crop and weed test (Example 16). The note with it: 250 g/ha, after 20 days. How it is done:
as §4, §5, §6

Assay [33] concerns XANST Xanthium strumarium. The experiment in a line: Pre-emergence crop and weed test (Example 16). The conditions noted are these: 250 g/ha, after 20 days. On the procedure:
as §4, §5, §6

Assay [34] deals with SINAR Sinapis arvensis. The experiment in a line: Pre-emergence crop and weed test (Example 16). The note with it: 250 g/ha, after 20 days. How it is done:
as §4, §5, §6

As for `C=Cc1c(NCc2ccco2)nc(-c2ccc(Cl)cc2)nc1C(=O)OC` [Compound 7, 2-(4-Chlorophenyl)-5-ethenyl-4-(furan-2-ylmethylamino)-6-methoxycarbonyl-pyrimi-dine], the pest or weed control at 1000 g/ha in assay [1] stood at 20%; in the assay with Setaria faberi (SETFA) [2], 10%; in assay [3], 40%; with Solanum nigrum (SOLNI) [4], 20%; in [5], 100%; in assay [6], 50%. The pest or weed control at 1000 g/ha was determined as 40% in assay [18]; 0% in the assay on Setaria faberi (SETFA) [19]; 80% in [20]; 90% in the assay on Solanum nigrum (SOLNI) [21]; 100% in assay [22]; 30% in assay [23]. Besides, the pest or weed control at 30 g/ha in the assay with GALAP Galium aparine is 60%; in assay [7] (30 g/ha) it was 0%; in [9] (30 g/ha) it was 70%; with VERPE Veronica persica (30 g/ha), 80%; in the assay on KCHSC Kochia scoparia [10] (30 g/ha), 40%; in assay [11] (30 g/ha) it was 40%. Besides, the pest or weed control at 30 g/ha was 70% in the assay with IPOHE Ipomoea hederacea [12]; 20% with CHEAL Chenopodium album [13] (30 g/ha); 50% in assay [14] (30 g/ha); 0% in the assay with SIDSP Sida spinosa [15] (30 g/ha); 50% in assay [16] (30 g/ha); 60% in the assay with SINAR Sinapis arvensis [17] (30 g/ha). For the same compound, the plant injury at 30 g/ha in the assay on GLXMA Soybean [8] (30 g/ha) was 0%.
Regarding `C=Cc1c(N)nc(-c2ccc(Cl)c(OC)c2F)nc1C(=O)O` [Compound 11, 4-amino-2-(4-chloro-2-fluoro-3-methoxyphenyl) -5-ethenylpyrimidine-6-carboxylic acid], in [24], the “Percentage damage EPHHL” value came out at 100%. In addition, the “Percentage damage GLXMA” value in the assay with GLXMA Soybean [25] amounted to 0%. Further, the “Percentage damage ABUTH” value in assay [26] was determined as 100%. Also, the “Percentage damage KCHSC” value in the assay on KCHSC Kochia scoparia [27] was found to be 100%. Further, in assay [28], the “Percentage damage POLCO” value turned out to be 20%. For the same compound, the “Percentage damage IPOHE” value in the assay with IPOHE Ipomoea hederacea [29] stood at 100%. In addition, the “Percentage damage CHEAL” value in the assay with CHEAL Chenopodium album [30] is 100%. For the same compound, in assay [31], the “Percentage damage AMARE” value amounted to 100%. For the same compound, the “Percentage damage SIDSP” value in the assay with SIDSP Sida spinosa [32] turned out to be 100%. Besides, in assay [33], the “Percentage damage XANST” value worked out at 70%. In addition, in the assay with SINAR Sinapis arvensis [34], the “Percentage damage SINAR” value was 70%. Besides, the pest or weed control at 8 g/ha in [7] (8 g/ha) stood at 90%; in [9] (8 g/ha), 90%; in the assay on VERPE Veronica persica (8 g/ha), 80%; in the assay with KCHSC Kochia scoparia [10] (8 g/ha), 10%; in assay [11] (8 g/ha), 70%; in the assay on CHEAL Chenopodium album [13] (8 g/ha) it was 80%. Also, the pest or weed control at 8 g/ha in [14] (8 g/ha) was 60%; in the assay on SIDSP Sida spinosa [15] (8 g/ha), 80%; in assay [16] (8 g/ha), 90%; with SINAR Sinapis arvensis [17] (8 g/ha), 0%. Moreover, the plant injury at 8 g/ha in the assay with GLXMA Soybean [8] (8 g/ha) stood at 0%.

Values taken from US20120115724A1, “METHOD OF CONTROLLING UNDESIRED VEGETATION” (SYNGENTA CROP PROTECTION LLC, priority 2009, published 2012).
